Where a name gives a salt, the structure may show the parent alone.
What was measured:
[1] = PK protocol, intravenous administration; assay type: in vivo, male Sprague Dawley rats; conditions: male, Sprague Dawley, rat, plasma, dose (mg/kg); for Vd: read-out: Vdss
Method: (§1) Pharmacokinetic parameters were determined in male Sprague Dawley rats (Charles River, UK, 250-350 g; or Vital River Laboratory Animal Technology Co Ltd, Beijing, China, 7-9 weeks old). Animals were individually housed during the study and maintained under a 12 h light/dark cycle. Animals had free access to food and water except that some orally dosed animals were food deprived overnight prior to the study.
(§2) For intravenous administration, compounds were formulated as a solution in water or […] in 2 mL/kg dosing volume and administered via tail vein. For oral administration, compounds were formulated as a solution in water or DMSO:water [10:90] in 5 mL/kg dosing volume and administered orally.
(§3) Serial blood samples (about 120-300 μL) were taken from each animal at each of 8 time-points post dose (0.083, 0.25, 0.5, 1, 2, 4, 8 and 24 h) or at each of 12 time-points post dose (0.03, 0.1, 0.17, 0.25, 0.5, 1, 2, 4, 6, 8, 12 and 24 h) or pre-dose and at each of 9 time-points post dose (0.25, 0.5, 1, 2, 4, 6, 8, 12 and 24 h). Samples were held on ice for no longer than 30 minutes before centrifugation (10,000 rpm (8,385 g) for 3 minutes; or 5,696 rpm (3,0009 for 15 minutes) for plasma generation. Plasma was frozen on dry ice prior to boanalysis. PK parameters were generated from LC-MS/MS data using Dotmatics or Phoenix WinNonlin 6.3 software.

NLRP3 [2] = target: T1, NLRP3 (Homo sapiens, UniProt Q96P20); assay: Human whole blood IL1β release assay (LPS + nigericin, AlphaLisa IL-1β); assay type: cell-based; set-up: Human whole blood in Li-heparin tubes was obtained from healthy donors from a volunteer donor panel; from tissue; host or cells: human whole blood from healthy donors; conditions: NLRP3 inhibitory activity, 1 μg/ml LPS, 10 μM nigericin, IL-1β release, read-out: HWB IC50
T1 sequence (Q96P20 whole entry): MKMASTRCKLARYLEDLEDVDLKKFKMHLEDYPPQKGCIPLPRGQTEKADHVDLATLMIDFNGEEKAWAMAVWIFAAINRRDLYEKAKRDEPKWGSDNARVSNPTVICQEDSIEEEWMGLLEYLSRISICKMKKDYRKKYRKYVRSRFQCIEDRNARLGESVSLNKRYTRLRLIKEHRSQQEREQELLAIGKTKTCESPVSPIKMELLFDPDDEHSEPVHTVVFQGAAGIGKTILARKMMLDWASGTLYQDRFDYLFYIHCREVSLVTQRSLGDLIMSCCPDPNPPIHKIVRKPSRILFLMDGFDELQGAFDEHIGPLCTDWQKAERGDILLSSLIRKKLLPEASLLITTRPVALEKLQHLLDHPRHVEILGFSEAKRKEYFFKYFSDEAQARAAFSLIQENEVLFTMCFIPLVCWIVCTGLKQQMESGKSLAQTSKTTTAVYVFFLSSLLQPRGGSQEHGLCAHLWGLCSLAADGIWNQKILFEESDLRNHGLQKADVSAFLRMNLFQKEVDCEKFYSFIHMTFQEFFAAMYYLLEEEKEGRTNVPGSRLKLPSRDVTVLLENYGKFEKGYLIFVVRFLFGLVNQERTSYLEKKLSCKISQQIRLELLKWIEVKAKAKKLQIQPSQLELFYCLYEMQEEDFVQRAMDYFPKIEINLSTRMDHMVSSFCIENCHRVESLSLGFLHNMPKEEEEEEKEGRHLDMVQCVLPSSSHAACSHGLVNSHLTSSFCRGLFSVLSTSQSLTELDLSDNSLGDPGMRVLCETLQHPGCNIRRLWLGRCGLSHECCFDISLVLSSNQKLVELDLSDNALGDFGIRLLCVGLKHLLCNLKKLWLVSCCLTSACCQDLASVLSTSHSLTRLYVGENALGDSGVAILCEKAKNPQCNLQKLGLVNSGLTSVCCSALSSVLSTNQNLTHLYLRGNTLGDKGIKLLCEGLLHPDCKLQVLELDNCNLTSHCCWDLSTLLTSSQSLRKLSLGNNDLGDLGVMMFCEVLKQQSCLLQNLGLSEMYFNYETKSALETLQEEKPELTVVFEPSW
Outline: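 Donor human whole blood (Li-heparin) was primed with 1 μg/mL LPS while incubated with compound (8-point half-log, 10 μM top, 0.1% DMSO) for 3 h at 37° C., then stimulated with 10 μM nigericin for 1 h. Supernatant IL-1β measured by AlphaLISA; IC50 from 4-parameter nonlinear fit.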

NLRP3 [3] = target: T1, NLRP3; assay: THP-1 cells pyroptosis assay (LPS + nigericin, resazurin readout); assay type: cell-based; set-up: Seed THP-1 cells (25,000 cells/well) containing 1.0 μg/ml LPS in 40 μl of RPMI medium; host or cells: THP-1 cells; conditions: NLRP3 inhibitory activity, 1.0 μg/ml LPS, 5 μM nigericin
Outline: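 LPS-primed (1 μg/ml) THP-1 cells, 25,000/well in serum-free RPMI, given compound (8-point half-log, 10 μM top; 0.1% DMSO) for 3 h at 37 °C, then nigericin 5 μM for 1 h. Viability by resazurin (100 μM, 1-2 h), Ex 560/Em 590 nm; IC50 from 4-parameter variable-slope fit.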

[4] = PK protocol, oral administration; assay type: in vivo, male Sprague Dawley rats; conditions: male, Sprague Dawley, rat, plasma, po, dose (mg/kg)
Method: as §1, §2, §3

Row | AUC [1] [ng·h/mL] | clearance [1] [mL/min/kg] | half-life [1] [min] | Vd [1] [L/kg] | IC50 (NLRP3 [2]) [nM] | IC50 (NLRP3 [3]) [nM] | AUC [4] [ng·h/mL] | CL/F [4] [mL/min/kg] | Cmax [4] [ng/mL] | Tmax [4] [min] | half-life [4] [min] | Structure (SMILES)
1 | 4250 | 4.3 | 210 | 0.51 | < 400 | < 40 |  |  |  |  |  | CC(c1cc(S(=O)(=O)NC(=O)Nc2c3c(cc4c2CCC4)CCC3)nn1C(C)C)N(C)C (stereo not shown) [Example 73, 5-(1-(Dimethylamino)ethyl)-N-((1,2,3,5,6,7-hexahydro-s-indacen-4-yl)carbamoyl)-1-isopropyl-1H-pyrazole-3-sulfonamide]
2 | 2490 | 6.7 | 60 | 0.47 | 400 to 800 | 40 to 160 |  |  |  |  |  | CCN(C)Cc1cc(S(=O)(=O)NC(=O)Nc2c3c(cc4c2CCC4)CCC3)nn1C [Example 84, 5-((Ethyl(methyl)amino)methyl)-N-((1,2,3,5,6,7-hexahydro-s-indacen-4-yl)carbamoyl)-1-methyl-1H-pyrazole-3-sulfonamide]
3 | 7970 | 3.5 | 90 | 0.39 | < 400 | < 40 |  |  |  |  |  | CCn1nc(S(=O)(=O)NC(=O)Nc2c3c(cc4c2CCC4)CCC3)cc1CN(C)C [Example 52, 5-((Dimethylamino)methyl)-1-ethyl-N-((1,2,3,5,6,7-hexahydro-s-indacen-4-yl)carbamoyl)-1H-pyrazole-3-sulfonamide]
4 | 6210 | 2.7 | 168 | 0.53 | 400 to 800 | 40 to 160 |  |  |  |  |  | O=C(Nc1c2c(cc3c1CCC3)CCC2)NS(=O)(=O)c1cc(CN2CCC2)n(C2CC2)n1 [Example 30, 5-(Azetidin-1-ylmethyl)-1-cyclopropyl-N-((1,2,3,5,6,7-hexahydro-s-indacen-4-yl)carbamoyl)-1H-pyrazole-3-sulfonamide]
5 | 3900 | 4.3 | 66 | 0.33 | < 400 | 40 to 160 |  |  |  |  |  | CC(c1cc(S(=O)(=O)NC(=O)Nc2c3c(cc4c2CCC4)CCC3)nn1C)N1CCC1 (single isomer, unassigned; enantiomer 2) [Example 27, 5-(1-(Azetidin-1-yl)ethyl)-N-((1,2,3,5,6,7-hexahydro-s-indacen-4-yl)carbamoyl)-1-methyl-1H-pyrazole-3-sulfonamide, Sodium Salt (Enantiomer 2)]
6 | 6630 | 2.7 | 132 | 0.34 | < 400 | 40 to 160 |  |  |  |  |  | CCn1nc(S(=O)(=O)NC(=O)Nc2c3c(cc4c2CCC4)CCC3)cc1CN1CCC1 [Example 49, 5-(Azetidin-1-ylmethyl)-1-ethyl-N-((1,2,3,5,6,7-hexahydro-s-indacen-4-yl)carbamoyl)-1H-pyrazole-3-sulfonamide]
7 | 3780 | 4.4 | 96 | 0.12 | 400 to 800 | 40 to 160 |  |  |  |  |  | CN(C)CCn1nc(S(=O)(=O)NC(=O)Nc2c3c(cc4c2CCC4)CCC3)cc1C(C)(C)O [Example 4, 1-(2-(Dimethylamino)ethyl)-N-((1,2,3,5,6,7-hexahydro-s-indacen-4-yl)carbamoyl)-5-(2-hydroxypropan-2-yl)-1H-pyrazole-3-sulfonamide]
8 | 4400 | 3.8 | 192 | 0.48 | 800 to 1600 | 160 to 640 |  |  |  |  |  | Cn1nc(S(=O)(=O)NC(=O)Nc2c3c(cc4c2CCC4)CCC3)cc1CN1CCC1 [Example 86, 5-(Azetidin-1-ylmethyl)-N-((1,2,3,5,6,7-hexahydro-s-indacen-4-yl)carbamoyl)-1-methyl-1H-pyrazole-3-sulfonamide, Sodium Salt]
9 | 3460 | 10 | 60 | 0.58 | < 400 | < 40 |  |  |  |  |  | CC(c1cc(S(=O)(=O)NC(=O)Nc2c3c(cc4c2CCC4)CCC3)nn1C1CC1)N1CCC1 (stereo not shown) [Example 25, 5-(˜(Azetidin-1-yl)ethyl)-1-cyclopropyl-N-((1,2,3,5,6,7-hexahydro-s-indacen-4-yl)carbamoyl)-1H-pyrazole-3-sulfonamide]
10 | 1280 | 13 | 60 | 0.84 | < 400 | < 40 |  |  |  |  |  | CCC(c1cc(S(=O)(=O)NC(=O)Nc2c3c(cc4c2CCC4)CCC3)nn1C1CC1)N(C)C (stereo not shown) [Example 24, 1-Cyclopropyl-5-(1-(dimethylamino)propyl)-N-((1,2,3,5,6,7-hexahydro-s-indacen-4-yl)carbamoyl)-1H-pyrazole-3-sulfonamide]
11 | 1130 | 37 | 78 | 1.32 | < 400 | < 40 |  |  |  |  |  | CN(C)CCn1nc(S(=O)(=O)NC(=O)Nc2c3c(cc4c2CCC4)CCC3)cc1CN(C)C [Example 3, 1-(2-(Dimethylamino)ethyl)-5-((dimethylamino)methyl)-N-((1,2,3,5,6,7-hexahydro-s-indacen-4-yl)carbamoyl)-1H-pyrazole-3-sulfonamide]
12 |  |  |  |  | < 400 | < 40 | 17000 | 4.2 | 7460 | 22.8 | 72 | CC(c1cc(S(=O)(=O)NC(=O)Nc2c3c(cc4c2CCC4)CCC3)nn1C)N(C)C (single isomer, unassigned; enantiomer 1) [Example 69, 5-(1-(Dimethylamino)ethyl)-N-((1,2,3,5,6,7-hexahydro-s-indacen-4-yl)carbamoyl)-1-methyl-1H-pyrazole-3-sulfonamide, Enantiomer 1]
13 | 1500 | 11.2 | 258 | 1.64 | < 400 | 160 to 640 |  |  |  |  |  | CC(C)c1cc(F)cc(C(C)C)c1NC(=O)NS(=O)(=O)c1cc(CN2CCC2)n(C)n1 [Example 88, 5-(Azetidin-1-ylmethyl)-N-((4-fluoro-2,6-diisopropylphenyl)carbamoyl)-1-methyl-1H-pyrazole-3-sulfonamide, Sodium Salt]
14 | 3120 | 5.3 | 72 | 0.21 | < 400 | 640 to 2560 |  |  |  |  |  | Cn1nc(S(=O)(=O)[N-]C(=O)Nc2c3c(cc4c2CCC4)CCC3)cc1C[N+](C)(C)C [Example 44, ((1,2,3,5,6,7-Hexahydro-s-indacen-4-yl)carbamoyl)((1-methyl-5-((trimethylammonio)methyl)-1H-pyrazol-3-yl)sulfonyl)amide]
15 | 4440 | 3.8 | 210 | 0.38 | < 400 | < 40 |  |  |  |  |  | CC(c1cc(S(=O)(=O)NC(=O)Nc2c3c(cc4c2CCC4)CCC3)nn1C)N(C)C (stereo not shown) [Example 77, 5-(1-(Dimethylamino)ethyl)-N-((1,2,3,5,6,7-hexahydro-s-indacen-4-yl)carbamoyl)-1-methyl-1H-pyrazole-3-sulfonamide]
16 | 1020 | 16.3 | 84 | 1.4 | < 400 | 160 to 640 |  |  |  |  |  | CCN(C)Cc1cc(S(=O)(=O)NC(=O)Nc2c(C(C)C)cc(F)cc2C(C)C)nn1C [Example 89, 5-((Ethyl(methyl)amino)methyl)-N-((4-fluoro-2,6-diisopropylphenyl)carbamoyl)-1-methyl-1H-pyrazole-3-sulfonamide, sodium Salt]
17 | 1280 | 13.1 | 192 | 2.19 | < 400 | 160 to 640 |  |  |  |  |  | CC(C)c1cc(F)cc(C(C)C)c1NC(=O)NS(=O)(=O)c1cc(CN(C)C)n(C)n1 [Example 92, 5-((Dimethylamino)methyl)-N-((4-fluoro-2,6-diisopropyl-phenyl)carbamoyl)-1-methyl-1H-pyrazole-3-sulfonamide, Sodium Salt]
